This passage reports GI50 and TGI results from PubChem BioAssay (NCI).

Some test systems named below: ACHN renal; DU-145 prostate; KM12 colon; MCF7 breast; NCI-H226 lung; OVCAR-3 ovarian; PC-3 prostate; SN12C renal; SW-620 colon; UACC-62 melanoma.
Experiment in all cases: inhibition of tumour cell growth, NCI panel, 48 h

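Briefly, cells in 96-well plates were exposed to five compound concentrations for 48 h, and endpoints were estimated by linear interpolation. GI50 = concentration required for 50% inhibition of growth. TGI: total growth inhibition.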

Regarding `O=C(Nc1n[nH]c2nc(-c3ccco3)ccc12)C1CC1`, the GI50 with ACHN renal, in the test with DU-145 prostate, in the test on KM12 colon, with MCF7 breast, in the test on NCI-H226 lung and in the test on OVCAR-3 ovarian was above 25 µM each time. Moreover, the GI50 with PC-3 prostate, with SN12C renal, with SW-620 colon and in the test with UACC-62 melanoma was above 25 µM throughout. Moreover, the TGI with ACHN renal, in the test on DU-145 prostate, with KM12 colon, in the test on MCF7 breast, in the test with NCI-H226 lung and with OVCAR-3 ovarian was above 25 µM each time. Also, the TGI in the test with PC-3 prostate, with SN12C renal, in the test on SW-620 colon and in the test on UACC-62 melanoma was above 25 µM each time.

Consider `COc1ccc(/C=C2\CN(Cc3cn(CCCNc4ccnc5cc(Cl)ccc45)nn3)C/C(=C\c3ccc(OC)c(OC)c3)C2=O)cc1OC`, for which the GI50 is 1.64 µM in the test on ACHN renal; 1.1 µM in the test on DU-145 prostate; 0.304 µM in the test on KM12 colon; 0.503 µM with MCF7 breast; 1.97 µM in the test on NCI-H226 lung; 0.463 µM in the test with OVCAR-3 ovarian. The GI50 with PC-3 prostate is 0.843 µM; with SN12C renal, 1.33 µM; with SW-620 colon, 0.455 µM; in the test with UACC-62 melanoma it was 1.49 µM. Further, the TGI worked out at 3.11 µM in the test on ACHN renal; 2.31 µM with DU-145 prostate; 1.07 µM in the test on KM12 colon; 2.45 µM in the test with MCF7 breast; 4.74 µM in the test on NCI-H226 lung; 1.68 µM with OVCAR-3 ovarian. In addition, the TGI in the test with PC-3 prostate worked out at 3.22 µM; in the test on SN12C renal, 3.12 µM; with SW-620 colon it was 1.75 µM; with UACC-62 melanoma it was 3.16 µM.

With `O=c1cc(-c2ccc(Cl)cc2)[nH]c2ncccc12`, the TGI with ACHN renal is above 100 µM; in the test with DU-145 prostate, above 100 µM; in the test on KM12 colon, above 100 µM; in the test on MCF7 breast, above 100 µM; in the test on NCI-H226 lung, above 100 µM; in the test with OVCAR-3 ovarian, 73.8 µM. Moreover, the TGI with PC-3 prostate, in the test on SN12C renal, in the test with SW-620 colon and in the test on UACC-62 melanoma was above 100 µM each time. In addition, the GI50 was 23.4 µM in the test with OVCAR-3 ovarian and 47.6 µM in the test on PC-3 prostate.

`O=C1OCc2c1cc(F)cc2[N+](=O)[O-]`: the GI50 with ACHN renal, in the test with DU-145 prostate, in the test on KM12 colon, in the test with MCF7 breast, with NCI-H226 lung and in the test on OVCAR-3 ovarian was above 100 µM throughout. For the same compound, the GI50 in the test with PC-3 prostate, in the test with SN12C renal, with SW-620 colon and in the test with UACC-62 melanoma was above 100 µM throughout. The TGI in the test with ACHN renal, in the test on DU-145 prostate, in the test on KM12 colon, in the test on MCF7 breast, with NCI-H226 lung and in the test with OVCAR-3 ovarian was above 100 µM throughout. The TGI with PC-3 prostate, in the test on SN12C renal, in the test on SW-620 colon and in the test on UACC-62 melanoma was above 100 µM throughout.

Regarding `S=c1nc2[nH]ncc2c(N/N=C/c2ccccc2)[nH]1`, the GI50 is 63.3 µM in the test with ACHN renal; above 100 µM with DU-145 prostate; above 100 µM in the test on KM12 colon; 32 µM in the test on MCF7 breast; above 100 µM in the test with NCI-H226 lung; 48.5 µM in the test with OVCAR-3 ovarian. In addition, the GI50 in the test with PC-3 prostate was above 100 µM; in the test on SN12C renal, above 100 µM; in the test with SW-620 colon it was above 100 µM; with UACC-62 melanoma, 72.7 µM. The TGI was above 100 µM with ACHN renal; above 100 µM in the test on DU-145 prostate; above 100 µM in the test on KM12 colon; 47 µM in the test with MCF7 breast; above 100 µM in the test with NCI-H226 lung; above 100 µM in the test with OVCAR-3 ovarian. Moreover, the TGI with PC-3 prostate, in the test on SN12C renal, in the test on SW-620 colon and in the test on UACC-62 melanoma was above 100 µM in each case.
